{"source": "patent US20250161290A1", "about": "“CO-CRYSTALS” (CereSpir Incorporated, priority 2021, published 2025)", "key": {"[1]": {"experiment": "Coformer solubility assessment in organic solvents (qualitative)", "assay_type": "physicochemical", "conditions": "gentle heating 45° C. if required; for solubility: organic solvent or mixture, thermodynamic from solid", "protocol": "Coformer solubility assessment was then performed. The following solvents were selected under these solvent classifications, which represent typical manufacturing solvents and have good solvent-solvent miscibility: • 1. Aprotic Polar: acetone, ethyl acetate, acetonitrile; • 2. Hydrogen Bond Donor: ethanol, methanol; and • 3. Electron Pair Donor: MTBE instead of diethyl ether.\nApproximately 0.1 mmol of the coformer was weighed out into a 1-dram vial, enough solvent was added to achieve a 0.2 M concentration, and if required, gentle heating was applied at 45° C. for about 1 minute. […] After 65 hours, observations were made to determine if the coformers had remained in solution."}, "[2]": {"experiment": "Coformer and CSP-1103 aqueous solubility assessment (qualitative)", "assay_type": "physicochemical", "conditions": "water, thermodynamic from solid, 0.05 M aqueous concentration, gentle heating at 45° C. for 1 minute", "protocol": "In a 1-dram vial, enough solvent was added to achieve a 0.05 M aqueous concentration along with some gentle heating at 45° C. for 1 minute to determine if the material would completely dissolve. After 24 hours, observations were made to determine if the material had remained in solution."}, "[3]": {"experiment": "Consolidated qualitative solubility results (Tables 6 and 8)", "conditions": "for qualitative solvent solubility overlaid with cocrystallization screens' results: Table 8, numbers are molar concentrations pending investigation; for consolidated solubility result: Table 6"}, "[4]": {"experiment": "Dynamic Vapor Sorption (DVS) water sorption/desorption", "assay_type": "physicochemical", "protocol": "(§1) Samples are analyzed using a TA Instruments Q5000SA gravimetric water sorption analyzer. The relative humidity (RH) is adjusted in 10% RH increments between 5-95% (±1% RH) at 25° C. (±0.5%° C.). The mass of a sample is continuously monitored and recorded with respect to RH and time with criteria for mass equilibrium set as a percent mass change <0.0100 for 5 minutes with a time limit of 720 minutes per step. The humidity is controlled by mixing dry and wet nitrogen streams with a total flow rate of 200 mL/min. The instrument control and data analysis are operated under Advantage for Q Series and Universal Analysis software, respectively."}, "[5]": {"experiment": "XRPD of pre-exposed and post-exposed DVS samples (solid form stability)", "assay_type": "physicochemical", "conditions": "two DVS sorption/desorption cycles, 5-95% RH, 25° C.", "protocol": "X-ray powder diffraction analyses are obtained using a BRUKER D8 ADVANCE equipped with a Cu radiation source operated at 40 kV and 40 mA (λ=1.54 Å after Ni filtering) configured in a Bragg-Brentano geometry, equipped with a 90-position AUTO-CHANGER and a silicon strip detector (SSD160-2). A coupled theta-two theta continuous PSD (Position Sensitive Device) fast scan from 4 to 40 degrees are collected over approximately 32 minutes (0.5 sec/0.01° step). A sample is placed onto a polished zero-background silicon wafer by gently distributing onto the flat surface and is analyzed as a flat plate specimen.\nas §1"}, "[6]": {"conditions": "MTBE, organic solvent or mixture"}, "[7]": {"conditions": "acetonitrile, organic solvent or mixture"}, "[8]": {"conditions": "ethyl acetate, organic solvent or mixture"}, "[9]": {"conditions": "ethanol, organic solvent or mixture"}}}
{"smiles": "O=C(O)/C=C/c1ccc(O)c(O)c1", "note": "[caffeic acid]", "values": [{"measurement": "solubility", "setting": "[1]; MTBE", "value": "< 50", "unit": "mM"}, {"measurement": "solubility", "setting": "[1]; acetone", "value": "> 100", "unit": "mM"}, {"measurement": "solubility", "setting": "[1]; ethanol", "value": "> 200", "unit": "mM"}, {"measurement": "solubility", "setting": "[1]; methanol", "value": "> 200", "unit": "mM"}, {"measurement": "solubility", "setting": "[2]", "value": "< 50", "unit": "mM"}, {"measurement": "solubility", "setting": "physchem; [6]", "value": "< 50", "unit": "mM"}, {"measurement": "solubility", "setting": "physchem; [7]", "value": "< 50", "unit": "mM"}, {"measurement": "solubility", "setting": "physchem; [8]", "value": "< 50", "unit": "mM"}, {"measurement": "solubility", "setting": "physchem; water", "value": "< 50", "unit": "mM"}, {"measurement": "qualitative solvent solubility overlaid with cocrystallization screens' results", "setting": "[3]; acetone (BP 56° C.)", "value": "✓"}, {"measurement": "consolidated solubility result", "setting": "[3]; acetone", "value": "✓"}, {"measurement": "qualitative solvent solubility overlaid with cocrystallization screens' results", "setting": "[3]; ethanol (BP 79° C.)", "value": "✓"}, {"measurement": "consolidated solubility result", "setting": "[3]; ethanol", "value": "✓"}, {"measurement": "qualitative solvent solubility overlaid with cocrystallization screens' results", "setting": "[3]; methanol (BP 65° C.)", "value": "✓"}, {"measurement": "consolidated solubility result", "setting": "[3]; methanol", "value": "✓"}]}
{"smiles": "NC(=O)c1cccnc1", "note": "[nicotinamide]", "values": [{"measurement": "Mass Change, Adsorption", "setting": "[4]; DVS cycle 1 of 2, RH 5 to 95%", "value": 1.11, "unit": "%"}, {"measurement": "Mass Change, Desorption", "setting": "[4]; DVS cycle 1 of 2, RH 95 to 5%", "value": "−1.11", "unit": "%"}, {"measurement": "Mass Change, Adsorption", "setting": "[4]; DVS cycle 2 of 2, RH 5 to 95%", "value": 1.18, "unit": "%"}, {"measurement": "Mass Change, Desorption", "setting": "[4]; DVS cycle 2 of 2, RH 95 to 5%", "value": "−1.18", "unit": "%"}, {"measurement": "solubility", "setting": "[1]; acetone", "value": "> 200", "unit": "mM"}, {"measurement": "solubility", "setting": "[1]; acetonitrile", "value": "> 100", "unit": "mM"}, {"measurement": "solubility", "setting": "[1]; ethanol", "value": "> 200", "unit": "mM"}, {"measurement": "solubility", "setting": "[1]; ethyl acetate", "value": "> 50", "unit": "mM"}, {"measurement": "solubility", "setting": "[1]; methanol", "value": "> 200", "unit": "mM"}, {"measurement": "solubility", "setting": "[2]", "value": "> 50", "unit": "mM"}, {"measurement": "solid form change after DVS exposure (XRPD pre- vs post-exposed)", "setting": "[5]", "value": "no solid state form changes"}, {"measurement": "solubility", "setting": "physchem; [6]", "value": "< 50", "unit": "mM"}, {"measurement": "solubility", "setting": "physchem; [8]", "value": 50, "unit": "mM"}, {"measurement": "consolidated solubility result", "setting": "[3]; acetone", "value": "✓"}, {"measurement": "qualitative solvent solubility overlaid with cocrystallization screens' results", "setting": "[3]; acetonitrile (BP 82° C.)", "value": "✓"}, {"measurement": "consolidated solubility result", "setting": "[3]; acetonitrile", "value": "✓"}, {"measurement": "consolidated solubility result", "setting": "[3]; ethanol", "value": "✓"}, {"measurement": "consolidated solubility result", "setting": "[3]; ethyl acetate", "value": "✓"}, {"measurement": "qualitative solvent solubility overlaid with cocrystallization screens' results", "setting": "[3]; methanol (BP 65° C.)", "value": "✓"}, {"measurement": "consolidated solubility result", "setting": "[3]; methanol", "value": "✓"}, {"measurement": "qualitative solvent solubility overlaid with cocrystallization screens' results", "setting": "[3]; water (BP 100° C.)", "value": "✓"}, {"measurement": "consolidated solubility result", "setting": "[3]; water", "value": "✓"}]}
{"smiles": "N[C@@H](Cc1ccccc1)C(=O)O", "note": "[phenylalanine]", "values": [{"measurement": "solubility", "setting": "[2]", "value": "> 50", "unit": "mM"}, {"measurement": "solubility", "setting": "physchem; [6]", "value": "< 50", "unit": "mM"}, {"measurement": "solubility", "setting": "physchem; acetone, organic solvent or mixture", "value": "< 50", "unit": "mM"}, {"measurement": "solubility", "setting": "physchem; [7]", "value": "< 50", "unit": "mM"}, {"measurement": "solubility", "setting": "physchem; [9]", "value": "< 50", "unit": "mM"}, {"measurement": "solubility", "setting": "physchem; [8]", "value": "< 50", "unit": "mM"}, {"measurement": "solubility", "setting": "physchem; methanol, organic solvent or mixture", "value": "< 50", "unit": "mM"}, {"measurement": "qualitative solvent solubility overlaid with cocrystallization screens' results", "setting": "[3]; water (BP 100° C.)", "value": "✓"}, {"measurement": "consolidated solubility result", "setting": "[3]; water", "value": "✓"}]}
{"smiles": "O=C1NS(=O)(=O)c2ccccc21", "note": "[saccharin]", "values": [{"measurement": "qualitative solubility at 0.05 M", "setting": "[1]; MTBE", "value": "Y✓"}, {"measurement": "solubility", "setting": "[1]; acetone", "value": "> 200", "unit": "mM"}, {"measurement": "solubility", "setting": "[1]; acetonitrile", "value": "> 200", "unit": "mM"}, {"measurement": "solubility", "setting": "[1]; ethanol", "value": "> 100", "unit": "mM"}, {"measurement": "solubility", "setting": "[1]; ethyl acetate", "value": "> 200", "unit": "mM"}, {"measurement": "solubility", "setting": "[1]; methanol", "value": "> 200", "unit": "mM"}, {"measurement": "solubility", "setting": "[2]", "value": "< 50", "unit": "mM"}, {"measurement": "solubility", "setting": "physchem; [9]", "value": 100, "unit": "mM"}, {"measurement": "solubility", "setting": "physchem; [8]", "value": 200, "unit": "mM"}, {"measurement": "solubility", "setting": "physchem; water", "value": "< 50", "unit": "mM"}, {"measurement": "qualitative solvent solubility overlaid with cocrystallization screens' results", "setting": "[3]; MTBE (BP 55° C.)", "value": "✓"}, {"measurement": "consolidated solubility result", "setting": "[3]; MTBE", "value": "✓"}, {"measurement": "qualitative solvent solubility overlaid with cocrystallization screens' results", "setting": "[3]; acetone (BP 56° C.)", "value": "✓"}, {"measurement": "consolidated solubility result", "setting": "[3]; acetone", "value": "✓"}, {"measurement": "qualitative solvent solubility overlaid with cocrystallization screens' results", "setting": "[3]; acetonitrile (BP 82° C.)", "value": "✓"}, {"measurement": "consolidated solubility result", "setting": "[3]; acetonitrile", "value": "✓"}, {"measurement": "consolidated solubility result", "setting": "[3]; ethanol", "value": "✓"}, {"measurement": "consolidated solubility result", "setting": "[3]; ethyl acetate", "value": "✓"}, {"measurement": "qualitative solvent solubility overlaid with cocrystallization screens' results", "setting": "[3]; methanol (BP 65° C.)", "value": "✓"}, {"measurement": "consolidated solubility result", "setting": "[3]; methanol", "value": "✓"}]}
{"smiles": "COc1cc(C=O)ccc1O", "note": "[vanillin]", "values": [{"measurement": "solubility", "setting": "[1]; MTBE", "value": "> 200", "unit": "mM"}, {"measurement": "solubility", "setting": "[1]; acetone", "value": "> 200", "unit": "mM"}, {"measurement": "solubility", "setting": "[1]; acetonitrile", "value": "> 200", "unit": "mM"}, {"measurement": "solubility", "setting": "[1]; ethanol", "value": "> 200", "unit": "mM"}, {"measurement": "solubility", "setting": "[1]; ethyl acetate", "value": "> 200", "unit": "mM"}, {"measurement": "solubility", "setting": "[1]; methanol", "value": "> 200", "unit": "mM"}, {"measurement": "solubility", "setting": "[2]", "value": "> 50", "unit": "mM"}, {"measurement": "solubility", "setting": "physchem; [8]", "value": 200, "unit": "mM"}, {"measurement": "qualitative solvent solubility overlaid with cocrystallization screens' results", "setting": "[3]; MTBE (BP 55° C.)", "value": "✓"}, {"measurement": "consolidated solubility result", "setting": "[3]; MTBE", "value": "✓"}, {"measurement": "qualitative solvent solubility overlaid with cocrystallization screens' results", "setting": "[3]; acetone (BP 56° C.)", "value": "✓"}, {"measurement": "consolidated solubility result", "setting": "[3]; acetone", "value": "✓"}, {"measurement": "qualitative solvent solubility overlaid with cocrystallization screens' results", "setting": "[3]; acetonitrile (BP 82° C.)", "value": "✓"}, {"measurement": "consolidated solubility result", "setting": "[3]; acetonitrile", "value": "✓"}, {"measurement": "qualitative solvent solubility overlaid with cocrystallization screens' results", "setting": "[3]; ethanol (BP 79° C.)", "value": "✓"}, {"measurement": "consolidated solubility result", "setting": "[3]; ethanol", "value": "✓"}, {"measurement": "consolidated solubility result", "setting": "[3]; ethyl acetate", "value": "✓"}, {"measurement": "qualitative solvent solubility overlaid with cocrystallization screens' results", "setting": "[3]; methanol (BP 65° C.)", "value": "✓"}, {"measurement": "consolidated solubility result", "setting": "[3]; methanol", "value": "✓"}, {"measurement": "qualitative solvent solubility overlaid with cocrystallization screens' results", "setting": "[3]; water (BP 100° C.)", "value": "✓"}, {"measurement": "consolidated solubility result", "setting": "[3]; water", "value": "✓"}]}
